In patent publication US20110021565A1, “PIPERIDINE DERIVATIVES AS NK3 ANTAGONISTS” (priority 2007, published 2011):
Like-named read-outs stand apart in the source and are kept apart here.

Molecular target: T1, recombinant human NK3 receptor (Homo sapiens, UniProt P29371)
T1 construct: expressed in transfected cells; host or cells: HEK293 cells, transient expression; membrane preparation
T1 sequence (P29371 1-465): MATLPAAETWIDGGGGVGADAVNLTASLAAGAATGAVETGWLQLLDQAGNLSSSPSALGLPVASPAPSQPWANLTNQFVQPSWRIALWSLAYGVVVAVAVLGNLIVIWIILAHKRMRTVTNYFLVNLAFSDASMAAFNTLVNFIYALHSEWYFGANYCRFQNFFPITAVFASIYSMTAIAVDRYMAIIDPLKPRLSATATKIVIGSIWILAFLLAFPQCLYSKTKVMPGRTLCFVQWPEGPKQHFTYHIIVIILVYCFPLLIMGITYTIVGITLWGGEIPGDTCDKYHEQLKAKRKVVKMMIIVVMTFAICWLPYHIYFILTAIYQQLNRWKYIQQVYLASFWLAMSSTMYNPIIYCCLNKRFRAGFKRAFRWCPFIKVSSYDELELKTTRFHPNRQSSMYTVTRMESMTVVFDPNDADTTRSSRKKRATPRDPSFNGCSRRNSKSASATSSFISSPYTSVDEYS
Assay: [3H]SR142801 competition binding assay
In short: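 Membranes from HEK293 cells transiently expressing the receptor (5 μg protein/well) incubated 75 min at RT with [3H]SR142801 at its KD and 10 compound concentrations (0.0003-10 μM), in pH 7.4 Tris buffer with MnCl2, phosphoramidon and BSA. Nonspecific binding defined with 10 μM SB222200; bound radioactivity counted after filtration. Ki from IC50 via Cheng-Prusoff; duplicates.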

[1] = [3H]SR142801, membranes of HEK293 cells transiently expressing recombinant human NK3 receptor, read-out: hNK3 Ki
[2] = representative compounds, [3H]SR142801, HEK293 membranes, human NK3 receptor, read-out: Ki NK3 h

Ki [1] [nM]	Ki [2] [nM]	SMILES
159	–	CN(Cc1ccccc1Cl)C(=O)C(F)(CCN1CCC(NS(C)(=O)=O)CC1)c1ccc(Cl)c(Cl)c1 (stereo not drawn) [Example 68, N-(2-Chloro-benzyl)-2-(3,4-dichloro-phenyl)-2-fluoro-4-(4-methanesulfonyl-amino-piperidin-1-yl)-N-methyl-butyramide]
2.4	2.4	CCN(C1CCN(CCC(C)(C(=O)N(C)Cc2ccc(C(F)(F)F)c(F)c2)c2ccc(Cl)c(Cl)c2)CC1)S(C)(=O)=O (stereo not drawn) [Example 69, 2-(3,4-Dichloro-phenyl)-4-[4-(ethyl-methanesulfonyl-amino)-piperidin-1-yl]-N-(3-fluoro-4-trifluoromethyl-benzyl)-2,N-dimethyl-butyramide]
1.2	1.2	CCN(C1CCN(CCC(C)(C(=O)N(C)Cc2ccc(Cl)c(Cl)c2)c2ccc(Cl)c(Cl)c2)CC1)S(C)(=O)=O (stereo not drawn) [Example 70, N-(3,4-Dichloro-benzyl)-2-(3,4-dichloro-phenyl)-4-[4-(ethyl-methanesulfonyl-amino)-piperidin-1-yl]-2,N-dimethyl-butyramide]
2.8	2.8	CCN(C1CCN(CCC(C)(C(=O)NCc2ccc(Cl)c(Cl)c2)c2ccc(Cl)c(Cl)c2)CC1)S(C)(=O)=O (stereo not drawn) [Example 71, N-(3,4-Dichloro-benzyl)-2-(3,4-dichloro-phenyl)-4-[4-(ethyl-methanesulfonyl-amino)-piperidin-1-yl]-2-methyl-butyramide]
2.2	2.2	CCN(C1CCN(CCC(C)(C(=O)N(C)Cc2ccc(Cl)cc2)c2ccc(Cl)c(Cl)c2)CC1)S(C)(=O)=O (stereo not drawn) [Example 72, N-(4-Chloro-benzyl)-2-(3,4-dichloro-phenyl)-4-[4-(ethyl-methanesulfonyl-amino)-piperidin-1-yl]-2,N-dimethyl-butyramide]
1.5	1.5	CCN(C1CCN(CCC(C)(C(=O)N(C)Cc2ccc(Cl)c(C(F)(F)F)c2)c2ccc(Cl)c(Cl)c2)CC1)S(C)(=O)=O (stereo not drawn) [Example 73, N-(4-Chloro-3-trifluoromethyl-benzyl)-2-(3,4-dichloro-phenyl)-4-[4-(ethyl-methanesulfonyl-amino)-piperidin-1-yl]-2,N-dimethyl-butyramide]
1.3	1.3	CCN(C1CCN(CCC(C)(C(=O)N(C)Cc2ccc(F)c(C(F)(F)F)c2)c2ccc(Cl)c(Cl)c2)CC1)S(C)(=O)=O (stereo not drawn) [Example 74, 2-(3,4-Dichloro-phenyl)-4-[4-(ethyl-methanesulfonyl-amino)-piperidin-1-yl]-N-(4-fluoro-3-trifluoromethyl-benzyl)-2,N-dimethyl-butyramide]
3.9	3.9	CCN(C1CCN(CCC(C)(C(=O)N(C)Cc2cccc(Cl)c2)c2ccc(Cl)c(Cl)c2)CC1)S(C)(=O)=O (stereo not drawn) [Example 75, N-(3-Chloro-benzyl)-2-(3,4-dichloro-phenyl)-4-[4-(ethyl-methanesulfonyl-amino)-piperidin-1-yl]-2,N-dimethyl-butyramide]

Further lines, the compound ahead of its results:

SMILES	Ki [1] [nM]	Ki [2] [nM]
CN(C1CCN(CCC(C)(C(=O)NC(c2ccccc2)C(F)(F)F)c2ccc(Cl)c(Cl)c2)CC1)S(C)(=O)=O (stereo not drawn) [Example 51, 2-(3,4-Dichloro-phenyl)-4-[4-(methanesulfonyl-methyl-amino)-piperidin-1-yl]-2-methyl-N-(2,2,2-trifluoro-1-phenyl-ethyl)-butyramide]	18.7	–
CN(C1CCN(CCC(C)(C(=O)NCc2ccccc2)c2ccc(Cl)c(Cl)c2)CC1)S(C)(=O)=O (stereo not drawn) [Example 52, N-Benzyl-2-(3,4-dichloro-phenyl)-4-[4-(methanesulfonyl-methyl-amino)-piperidin-1-yl]-2-methyl-butyramide]	64.8	–
CN(Cc1ccc(C(F)(F)F)c(F)c1)C(=O)C(F)(CCN1CCC(N(C)S(C)(=O)=O)CC1)c1ccc(Cl)c(Cl)c1 (stereo not drawn) [Example 53, 2-(3,4-Dichloro-phenyl)-2-fluoro-N-(3-fluoro-4-trifluoromethyl-benzyl)-4-[4-(methanesulfonyl-methyl-amino)-piperidin-1-yl]-N-methyl-butyramide]	18.3	–
CN(Cc1ccc(Cl)c(C(F)(F)F)c1)C(=O)C(F)(CCN1CCC(N(C)S(C)(=O)=O)CC1)c1ccc(Cl)c(Cl)c1 (stereo not drawn) [Example 54, N-(4-Chloro-3-trifluoromethyl-benzyl)-2-(3,4-dichloro-phenyl)-2-fluoro-4-[4-(methanesulfonyl-methyl-amino)-piperidin-1-yl]-N-methyl-butyramide]	24.5	–
CN(Cc1ccc(F)c(C(F)(F)F)c1)C(=O)C(F)(CCN1CCC(N(C)S(C)(=O)=O)CC1)c1ccc(Cl)c(Cl)c1 (stereo not drawn) [Example 55, 2-(3,4-Dichloro-phenyl)-2-fluoro-N-(4-fluoro-3-trifluoromethyl-benzyl)-4-[4-(methanesulfonyl-methyl-amino)-piperidin-1-yl]-N-methyl-butyramide]	23.4	–
CN(Cc1ccc(Cl)c(Cl)c1)C(=O)C(F)(CCN1CCC(N(C)S(C)(=O)=O)CC1)c1ccc(Cl)c(Cl)c1 (stereo not drawn) [Example 56, N-(3,4-Dichloro-benzyl)-2-(3,4-dichloro-phenyl)-2-fluoro-4-[4-(methanesulfonyl-methyl-amino)-piperidin-1-yl]-N-methyl-butyramide]	22.8	–
CN(Cc1ccc(C(F)(F)F)c(F)c1)C(=O)C(C)(CCN1CCC(N(C2CC2)S(C)(=O)=O)CC1)c1ccc(Cl)c(Cl)c1 (stereo not drawn) [Example 57, 4-[4-(Cyclopropyl-methanesulfonyl-amino)-piperidin-1-yl]-2-(3,4-dichloro-phenyl)-N-(3-fluoro-4-trifluoromethyl-benzyl)-2,N-dimethyl-butyramide]	5.9	5.9
CN(Cc1ccc(Cl)c(C(F)(F)F)c1)C(=O)C(C)(CCN1CCC(N(C2CC2)S(C)(=O)=O)CC1)c1ccc(Cl)c(Cl)c1 (stereo not drawn) [Example 58, N-(4-Chloro-3-trifluoromethyl-benzyl)-4-[4-(cyclopropyl-methanesulfonyl-amino)-piperidin-1-yl]-2-(3,4-dichloro-phenyl)-2,N-dimethyl-butyramide]	3.6	3.6
CN(Cc1ccc(F)c(C(F)(F)F)c1)C(=O)C(C)(CCN1CCC(N(C2CC2)S(C)(=O)=O)CC1)c1ccc(Cl)c(Cl)c1 (stereo not drawn) [Example 59, 4-[4-(Cyclopropyl-methanesulfonyl-amino)-piperidin-1-yl]-2-(3,4-dichloro-phenyl)-N-(4-fluoro-3-trifluoromethyl-benzyl)-2,N-dimethyl-butyramide]	4.3	4.3
CN(Cc1ccc(Cl)c(Cl)c1)C(=O)C(C)(CCN1CCC(N(C2CC2)S(C)(=O)=O)CC1)c1ccc(Cl)c(Cl)c1 (stereo not drawn) [Example 60, 4-[4-(Cyclopropyl-methanesulfonyl-amino)-piperidin-1-yl]-N-(3,4-dichloro-benzyl)-2-(3,4-dichloro-phenyl)-2,N-dimethyl-butyramide]	2.6	2.6
CN(Cc1ccc(C(F)(F)F)c(F)c1)C(=O)C(F)(CCN1CCC(NS(C)(=O)=O)CC1)c1ccc(Cl)c(Cl)c1 (stereo not drawn) [Example 61, 2-(3,4-Dichloro-phenyl)-2-fluoro-N-(3-fluoro-4-trifluoromethyl-benzyl)-4-(4-methanesulfonyl-amino-piperidin-1-yl)-N-methyl-butyramide]	80	–
CN(Cc1ccc(Cl)cc1)C(=O)C(F)(CCN1CCC(NS(C)(=O)=O)CC1)c1ccc(Cl)c(Cl)c1 (stereo not drawn) [Example 62, N-(4-Chloro-benzyl)-2-(3,4-dichloro-phenyl)-2-fluoro-4-(4-methanesulfonyl-amino-piperidin-1-yl)-N-methyl-butyramide]	105	–
CN(Cc1ccc(Cl)c(C(F)(F)F)c1)C(=O)C(F)(CCN1CCC(NS(C)(=O)=O)CC1)c1ccc(Cl)c(Cl)c1 (stereo not drawn) [Example 63, N-(4-Chloro-3-trifluoromethyl-benzyl)-2-(3,4-dichloro-phenyl)-2-fluoro-4-(4-methanesulfonyl-amino-piperidin-1-yl)-N-methyl-butyramide]	117	–
CN(Cc1ccc(F)c(C(F)(F)F)c1)C(=O)C(F)(CCN1CCC(NS(C)(=O)=O)CC1)c1ccc(Cl)c(Cl)c1 (stereo not drawn) [Example 64, 2-(3,4-Dichloro-phenyl)-2-fluoro-N-(4-fluoro-3-trifluoromethyl-benzyl)-4-(4-methanesulfonyl-amino-piperidin-1-yl)-N-methyl-butyramide]	122	–
CN(Cc1cccc(Cl)c1)C(=O)C(F)(CCN1CCC(NS(C)(=O)=O)CC1)c1ccc(Cl)c(Cl)c1 (stereo not drawn) [Example 65, N-(3-Chlorobenzyl)-2-(3,4-dichloro-phenyl)-2-fluoro-4-(4-methanesulfonyl-amino-piperidin-1-yl)-N-methyl-butyramide]	307	–
CN(Cc1ccc(C(F)(F)F)cc1)C(=O)C(F)(CCN1CCC(NS(C)(=O)=O)CC1)c1ccc(Cl)c(Cl)c1 (stereo not drawn) [Example 66, 2-(3,4-Dichloro-phenyl)-2-fluoro-4-(4-methanesulfonyl-amino-piperidin-1-yl)-N-methyl-N-(4-trifluoromethyl-benzyl)-butyramide]	84.3	–
Cc1ccc(CN(C)C(=O)C(F)(CCN2CCC(NS(C)(=O)=O)CC2)c2ccc(Cl)c(Cl)c2)cc1 (stereo not drawn) [Example 67, 2-(3,4-Dichloro-phenyl)-2-fluoro-4-(4-methanesulfonyl-amino-piperidin-1-yl)-N-methyl-N-(4-methyl-benzyl)-butyramide]	323	–
